Like-named read-outs stand apart in the source and are kept apart here.
Legend:
JAK3 enzyme [1] = target: T1, JAK3 enzyme (Homo sapiens (Human), UniProt P52333); experiment: JAK Caliper enzyme assay at 4 μM ATP; format: biochemical
Protocol: (§1) JAK Caliper Enzyme Assay at 4 μM or 1 mM ATP
(§2) Test article was solubilized in dimethyl sulfoxide (DMSO) to a stock concentration of 30 mM. An 11-point half log dilution series was created in DMSO with a top concentration of 600 μM. […] The compound plates were diluted 1 to 60 resulting in a top final assay compound concentration of 10 μM and a 2% DMSO concentration.
(§3) Test article and assay controls were added to a 384-well plate. Reaction mixtures contained 20 mM HEPES, pH 7.4, 10 mM magnesium chloride, 0.01% bovine serum albumin (BSA), 0.0005% Tween 20, 4 μM or 1 mM ATP and 1 μM peptide substrate. […] The assays were initiated by the addition 1 nM JAK3 enzyme and were incubated at room temperature 75 minutes for JAK3. Enzyme concentrations and incubation times were optimized for each new enzyme preps and were modified slightly over time to ensure 20%-30% phosphorylation. The assays were stopped with a final concentration of 10 mM EDTA, 0.1% Coating Reagent and 100 mM HEPES, pH=7.4. The assay plates were placed on a Caliper Life Science Lab Chip 3000 (LC3000) instrument, and each well was sampled using appropriate separation conditions to measure the unphosphorylated and phosphorylated peptide.

JAK3 enzyme [2] = target: T1, JAK3 enzyme; experiment: JAK Caliper enzyme assay at 1 mM ATP; format: biochemical
Protocol: as §1, §2, §3

[3] = Stability of JAK3 covalent inhibitors in human whole blood; format: in vitro ADME; conditions: both sexes, 37° C., read-out: Human blood stability t1/2;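 further: parent compound remaining over incubation time quantified by LC-MS/MS as peak area ratio against an internal standard, using pooled K2-EDTA blood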
Text: Stability of JAK3 Covalent Inhibitors in Rat and Human Whole Blood
Rat blood was collected from 3 male Sprague-Dawley rats (200-250 g, Charles River Laboratories) and pooled for each study. Human blood was collected from one male and one female healthy subjects at the Occupational Health & Wellness Center at Pfizer, Groton, CT and pooled for each study. Both rat and human blood was collected freshly into K2-EDTA tubes and kept on ice. An aliquot of the blood was transferred to microtubes and pre-warmed for 10 min at 37° C. using a heat block. […] An aliquot of the incubation mixture was removed at designated time points during the course of the incubation, mixed with an aliquot of acetonitrile containing an internal standard, vortexed and centrifuged. The resulting supernatants were removed and subjected to LC-MS/MS analyses to determine parent compound concentrations. Peak area ratios of the parent compound vs the internal standard were used to determine the % of parent compound remaining vs incubation time.

T1 sequence (P52333 whole entry, species assumed): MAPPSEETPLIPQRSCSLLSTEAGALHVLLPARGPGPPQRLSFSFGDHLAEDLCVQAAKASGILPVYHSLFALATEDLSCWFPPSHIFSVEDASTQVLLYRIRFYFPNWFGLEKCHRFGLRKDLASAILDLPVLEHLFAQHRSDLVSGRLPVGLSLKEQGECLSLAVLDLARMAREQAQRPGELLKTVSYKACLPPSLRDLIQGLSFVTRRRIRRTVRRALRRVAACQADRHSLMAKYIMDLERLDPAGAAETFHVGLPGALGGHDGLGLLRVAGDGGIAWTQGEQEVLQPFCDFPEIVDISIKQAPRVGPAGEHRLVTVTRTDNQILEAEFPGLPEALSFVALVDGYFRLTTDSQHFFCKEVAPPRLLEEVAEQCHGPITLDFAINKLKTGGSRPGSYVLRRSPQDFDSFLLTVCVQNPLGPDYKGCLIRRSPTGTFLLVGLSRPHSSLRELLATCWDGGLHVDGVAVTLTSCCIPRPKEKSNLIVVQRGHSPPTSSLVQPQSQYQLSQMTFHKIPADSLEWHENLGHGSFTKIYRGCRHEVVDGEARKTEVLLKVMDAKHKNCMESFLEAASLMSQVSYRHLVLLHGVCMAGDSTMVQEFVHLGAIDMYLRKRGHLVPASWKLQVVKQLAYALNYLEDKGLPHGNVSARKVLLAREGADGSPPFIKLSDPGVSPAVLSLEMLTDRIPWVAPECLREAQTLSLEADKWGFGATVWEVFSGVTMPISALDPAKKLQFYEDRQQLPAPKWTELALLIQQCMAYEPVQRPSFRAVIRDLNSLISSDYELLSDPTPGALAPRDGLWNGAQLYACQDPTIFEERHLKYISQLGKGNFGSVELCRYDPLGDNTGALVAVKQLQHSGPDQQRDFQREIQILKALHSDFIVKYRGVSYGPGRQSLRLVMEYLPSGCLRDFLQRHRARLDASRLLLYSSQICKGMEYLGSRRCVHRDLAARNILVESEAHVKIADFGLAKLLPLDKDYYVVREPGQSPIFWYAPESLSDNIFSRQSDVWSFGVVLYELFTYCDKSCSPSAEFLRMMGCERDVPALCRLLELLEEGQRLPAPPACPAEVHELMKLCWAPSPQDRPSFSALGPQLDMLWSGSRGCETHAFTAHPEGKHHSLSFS

`C=CC(=O)N1CC[C@H](O)[C@@H](Nc2ncnc3[nH]ccc23)C1` (racemic) [Example 113, rac-1-[(3S,4S)-4-Hydroxy-3-(7H-pyrrolo[2,3-d]pyrimidin-4-ylamino)piperidin-1-yl]prop-2-en-1-one] showed an IC50 (JAK3 enzyme [1]) of 42.4 nM and an IC50 (JAK3 enzyme [2]) of 8480 nM.
Work on `C=CC(=O)N1CCC[C@H](Nc2ncnc3[nH]ccc23)[C@H]1C` (racemic) [Example 121, rac-1-((2R,3S)-3-((7H-Pyrrolo[2,3-d]pyrimidin-4-yl)amino)-2-methylpiperidin-1-yl)prop-2-en-1-one] yielded an IC50 (JAK3 enzyme [1]) of 648 nM, an IC50 (JAK3 enzyme [2]) of over 10000 nM and a half-life at 1 μM ([3]; whole blood) of over 6 h.
Work on `C/C=C/C(=O)N1CC[C@@H](O)[C@@H](Nc2ncnc3[nH]ccc23)C1` (racemic) [Example 160, rac-(2E)-1-[(3S,4R)-4-Hydroxy-3-(7H-pyrrolo[2,3-d]pyrimidin-4-ylamino)piperidin-1-yl]but-2-en-1-one] yielded an IC50 (JAK3 enzyme [1]) of over 10000 nM.
For `C/C=C/C(=O)N1CC[C@@H]2CCN(c3ncnc4[nH]ccc34)[C@@H]2C1` [Example 84, (2E)-1-[(3aS,7aS)-1-(7H-pyrrolo[2,3-d]pyrimidin-4-yl)octahydro-6H-pyrrolo[2,3-c]pyridin-6-yl]but-2-en-1-one], the IC50 (JAK3 enzyme [1]; read-out: JAK3 (4 μM ATP) IC50) was 727 nM and the IC50 (JAK3 enzyme [2]; read-out: JAK3 (1 mM ATP) IC50) was over 10000 nM.
`O=C(C1=CCC1)N1CC[C@@H]2CCN(c3ncnc4[nH]ccc34)[C@@H]2C1` [Example 86, cyclobut-1-en-1-yl[(3aS,7aS)-1-(7H-pyrrolo[2,3-d]pyrimidin-4-yl)octahydro-6H-pyrrolo[2,3-c]pyridin-6-yl]methanone] showed an IC50 (JAK3 enzyme [1]; read-out: JAK3 (4 μM ATP) IC50) of 149 nM, an IC50 (JAK3 enzyme [2]; read-out: JAK3 (1 mM ATP) IC50) of over 10000 nM and a half-life at 1 μM ([3]; whole blood) of over 6 h.
Work on `C=CC(=O)c1c[nH]c2ncnc(N[C@H]3CN(C(=O)C=C)CC[C@H]3F)c12` [Example 120, 1-(4-{[(3S,4R)-1-Acryloyl-4-fluoropiperidin-3-yl]amino}-7H-pyrrolo[2,3-d]pyrimidin-5-yl)prop-2-en-1-one] yielded an IC50 (JAK3 enzyme [2]; read-out: JAK3 (1 mM ATP) IC50) of over 10000 nM.
For `C=CC(=O)N1C[C@H](Nc2ncnc3[nH]ccc23)CC[C@H]1CC` [Example 124, 1-[(2R,5R)-2-Ethyl-5-(7H-pyrrolo[2,3-d]pyrimidin-4-ylamino)piperidin-1-yl]prop-2-en-1-one], the IC50 (JAK3 enzyme [1]; read-out: JAK3 (4 μM ATP) IC50) was 265 nM and the IC50 (JAK3 enzyme [2]; read-out: JAK3 (1 mM ATP) IC50) was over 10000 nM.
For `C=CC(=O)N1C[C@@H](Nc2ncnc3[nH]ccc23)[C@@H]2CC[C@H]1C2` [Example 126, 1-((1S,4S,5R)-4-(7H-pyrrolo[2,3-d]pyrimidin-4-ylamino)-2-azabicyclo[3.2.1]octan-2-yl)prop-2-en-1-one], the IC50 (JAK3 enzyme [1]; read-out: JAK3 (4 μM ATP) IC50) was 602 nM and the IC50 (JAK3 enzyme [2]) was over 10000 nM.
Work on `C=CC(=O)N1C[C@H](Nc2ncnc3[nH]ccc23)[C@H]2CC[C@@H]1C2` [Example 127, 1-((1R,4R,5S)-4-(7H-pyrrolo[2,3-d]pyrimidin-4-ylamino)-2-azabicyclo[3.2.1]octan-2-yl)prop-2-en-1-one] yielded an IC50 (JAK3 enzyme [1]; read-out: JAK3 (4 μM ATP) IC50) of 190 nM and an IC50 (JAK3 enzyme [2]; read-out: JAK3 (1 mM ATP) IC50) of over 10000 nM.
For `C=CC(=O)N1CCC(Nc2cnc3[nH]cc(C(=O)N[C@@H]4C[C@H]4C(F)(F)F)c3n2)CC1` [Example 233, 2-[(1-acryloylpiperidin-4-yl)amino]-N-[(1R,2R)-2-(trifluoromethyl)cyclopropyl]-5H-pyrrolo[2,3-b]pyrazine-7-carboxamide], the IC50 (JAK3 enzyme [1]; read-out: JAK3 (4 μM ATP) IC50) was 0.2 nM and the IC50 (JAK3 enzyme [2]; read-out: JAK3 (1 mM ATP) IC50) was 20.6 nM.
`C=CC(=O)N1CCN(c2cnc3[nH]cc(C(=O)NC(C)C)c3n2)CC1(C)C` [Example 293, 2-(4-acryloyl-3,3-dimethylpiperazin-1-yl)-N-(propan-2-yl)-5H-pyrrolo[2,3-b]pyrazine-7-carboxamide] gave a half-life at 1 μM ([3]; whole blood) of over 6 h.
In the case of `C=CC(=O)N1CCN(c2cnc3[nH]cc(C(=O)NC(C)C)c3n2)C[C@@H]1C` [Example 295, 2-[(3S)-4-acryloyl-3-methylpiperazin-1-yl]-N-(propan-2-yl)-5H-pyrrolo[2,3-b]pyrazine-7-carboxamide], the half-life at 1 μM ([3]; whole blood) is reported as 3.15 h.
For `C=CC(=O)N1CCN(c2cnc3[nH]cc(C(=O)NC(C)C)c3n2)C[C@@H]1CC` [Example 299, 2-[(3S)-4-acryloyl-3-ethylpiperazin-1-yl]-N-(propan-2-yl)-5H-pyrrolo[2,3-b]pyrazine-7-carboxamide], the half-life at 1 μM ([3]; whole blood) was 3.32 h.
`C=CC(=O)N1C[C@@H]2C[C@H]1CN2c1cnc2[nH]cc(C(=O)NC(C)C)c2n1` [Example 300, 2-[(1S,4S)-5-acryloyl-2,5-diazabicyclo[2.2.1]hept-2-yl]-N-(propan-2-yl)-5H-pyrrolo[2,3-b]pyrazine-7-carboxamide] showed an IC50 (JAK3 enzyme [1]) of 0.9 nM, an IC50 (JAK3 enzyme [2]) of 84.4 nM and a half-life at 1 μM ([3]; whole blood (fresh, pooled, K2-EDTA)) of 1.95 h.
With `C=CC(=O)N1[C@@H]2CC[C@H]1CN(c1cnc3[nH]cc(C(=O)NC(C)C)c3n1)C2` [Example 301, 2-[(1R,5S)-8-acryloyl-3,8-diazabicyclo[3.2.1]oct-3-yl]-N-(propan-2-yl)-5H-pyrrolo[2,3-b]pyrazine-7-carboxamide] the half-life at 1 μM ([3]; whole blood) was 1.4 h.
For `C=CC(=O)N1CC[C@@H](Nc2cnc3[nH]cc(C(=O)NC(C)C)c3n2)[C@@H](OC)C1` [Example 302, 2-{[(3S,4R)-1-acryloyl-3-methoxypiperidin-4-yl]amino}-N-(propan-2-yl)-5H-pyrrolo[2,3-b]pyrazine-7-carboxamide], the half-life at 1 μM ([3]; whole blood) was over 6 h.
`C=CC(=O)N1CCN(c2cnc3[nH]cc(C(=O)NC(C)C)c3n2)C[C@@H]1CC(C)C` [Example 303, 2-[(3S)-4-acryloyl-3-(2-methylpropyl)piperazin-1-yl]-N-(propan-2-yl)-5H -pyrrolo[2,3-b]pyrazine-7-carboxamide] gave a half-life at 1 μM ([3]; whole blood) of 5.68 h.
In the case of `C=CC(=O)N1CC[C@@H](Nc2cnc3[nH]cc(C(=O)NC(C)C)c3n2)[C@H](OC)C1` [Example 305, 2-{[(3R,4R)-1-acryloyl-3-methoxypiperidin-4-yl]amino}-N-(propan-2-yl)-5H-pyrrolo[2,3-b]pyrazine-7-carboxamide], the half-life at 1 μM ([3]; whole blood) is reported as 5.95 h.
Compound `C=CC(=O)N1CCN(c2cnc3[nH]cc(C(=O)NC(C)C)c3n2)[C@H](C)C1` [Example 307, 2-[(2R)-4-acryloyl-2-methylpiperazin-1-yl]-N-(propan-2-yl)-5H-pyrrolo[2,3-b]pyrazine-7-carboxamide] has a half-life at 1 μM ([3]; whole blood) of 2.03 h.
Work on `C=CC(=O)N1CC[C@H](Nc2cnc3[nH]cc(C(=O)NC(C)C)c3n2)[C@H](OC)C1` [Example 317, 2-{[(3R,4S)-1-acryloyl-3-methoxypiperidin-4-yl]amino}-N-(propan-2-yl)-5H-pyrrolo[2,3-b]pyrazine-7-carboxamide] yielded a half-life at 1 μM ([3]; whole blood) of over 6 h.
`C=CC(=O)N1CCC(C)(Nc2cnc3[nH]cc(C(=O)NC(C)C)c3n2)CC1` [Example 318, 2-[(1-acryloyl-4-methylpiperidin-4-yl)amino]-N-(propan-2-yl)-5H-pyrrolo[2,3-b]pyrazine-7-carboxamide] gave a half-life at 1 μM ([3]; whole blood) of 5.87 h.
Work on `C=CC(=O)N1CC[C@@H](Nc2cnc3[nH]cc(C(=O)NC(C)C)c3n2)[C@@H](F)C1` [Example 320, 2-{[(3S,4R)-1-acryloyl-3-fluoropiperidin-4-yl]amino}-N-(propan-2-yl)-5H-pyrrolo[2,3-b]pyrazine-7-carboxamide] yielded a half-life at 1 μM ([3]; whole blood) of 3.17 h.
With `C=CC(=O)N1CC[C@@H](Nc2cnc3[nH]ccc3n2)C1` [Example 335, (R)-1-(3-((5H-Pyrrolo[2,3-b]pyrazin-2-yl)amino)pyrrolidin-1-yl)prop-2-en-1-one] the IC50 (JAK3 enzyme [2]; read-out: JAK3 (1 mM ATP) IC50) was over 10000 nM.
With `C=CC(=O)N1CC(Nc2cnc3[nH]ccc3n2)C1` [Example 337, 1-(3-((5H-Pyrrolo[2,3-b]pyrazin-2-yl)amino)azetidin-1-yl)prop-2-en-1-one] the half-life at 1 μM ([3]; whole blood) was 1.35 h.
`C=CC(=O)N1CCC(Oc2cnc3[nH]cc(C(=O)NC(C)(C)C)c3n2)CC1` [Example 338, 2-((1-Acryloylpiperidin-4-yl)oxy)-N-(tert-butyl)-5H-pyrrolo[2,3-b]pyrazine-7-carboxamide] gave a half-life at 1 μM ([3]; whole blood) of 5.47 h.
With `C=CC(=O)N1CCC(Oc2cnc3[nH]cc(C(=O)NC(C)C)c3n2)CC1` [Example 339, 2-((1-Acryloylpiperidin-4-yl)oxy)-N-isopropyl-5H-pyrrolo[2,3-b]pyrazine-7-carboxamide] the half-life at 1 μM ([3]; whole blood) was 3.78 h.
For `C=CC(=O)N1CC[C@@H](Nc2cnc3[nH]cc(C(=O)NC(C)(C)C)c3n2)C[C@H]1C` [Example 342, 2-(((2R,4R)-1-Acryloyl-2-methylpiperidin-4-yl)amino)-N-(tert-butyl)-5H-pyrrolo[2,3-b]pyrazine-7-carboxamide], the half-life at 1 μM ([3]; whole blood) was over 6 h.
Work on `C#CCNC(=O)c1c[nH]c2ncc(NC3CCN(C(=O)C=C)CC3)nc12` [Example 343, 2-((1-Acryloylpiperidin-4-yl)amino)-N-(prop-2-yn-1-yl)-5H-pyrrolo[2,3-b]pyrazine-7-carboxamide] yielded a half-life at 1 μM ([3]; whole blood) of over 5.85 h.
